Consider 45 molecules from ChEMBL document CHEMBL5550092, “Synthesis and biological evaluation of triazolones/oxadiazolones as novel urease inhibitors” (Bioorg Med Chem, 2024).

Each structure is given as a SMILES string. Active and inactive are the calls of the source. The rule behind the calls is not given here.

Data set [1] can be described thus: Cytotoxicity against human SGC-7901 cells assessed as cell viability at 250 ug/ml incubated for 72 hrs by CCK8 assay relative to control. To be noted: at 250 µg/mL, read-out: Activity. The data set is classed as toxicity, cell-based. For orientation: Tetrazolium assays rely on reduction of a dye to a coloured formazan, in cell work by metabolically active cells.

A short description of data set [2]: Cytotoxicity against human L02 cells assessed as cell viability at 250 ug/ml incubated for 72 hrs by CCK8 assay relative to control. The data set is classed as toxicity, cell-based. To be noted: at 250 µg/mL, read-out: Activity.
In data set [3] the target is Urease subunit alpha/Urease subunit beta (Helicobacter pylori (strain ATCC 700392 / 26695) (Campylobacterpylori), UniProt P69996). The data set can be described thus: (§1) Inhibition of Helicobacter pylori urease using urea as substrate assessed as decrease in ammonia production incubated for 0.5 hrs by indole phenol method. The data set is classed as protein-complex assay.
Urease subunit alpha/Urease subunit beta, sequence (P69996 whole entry): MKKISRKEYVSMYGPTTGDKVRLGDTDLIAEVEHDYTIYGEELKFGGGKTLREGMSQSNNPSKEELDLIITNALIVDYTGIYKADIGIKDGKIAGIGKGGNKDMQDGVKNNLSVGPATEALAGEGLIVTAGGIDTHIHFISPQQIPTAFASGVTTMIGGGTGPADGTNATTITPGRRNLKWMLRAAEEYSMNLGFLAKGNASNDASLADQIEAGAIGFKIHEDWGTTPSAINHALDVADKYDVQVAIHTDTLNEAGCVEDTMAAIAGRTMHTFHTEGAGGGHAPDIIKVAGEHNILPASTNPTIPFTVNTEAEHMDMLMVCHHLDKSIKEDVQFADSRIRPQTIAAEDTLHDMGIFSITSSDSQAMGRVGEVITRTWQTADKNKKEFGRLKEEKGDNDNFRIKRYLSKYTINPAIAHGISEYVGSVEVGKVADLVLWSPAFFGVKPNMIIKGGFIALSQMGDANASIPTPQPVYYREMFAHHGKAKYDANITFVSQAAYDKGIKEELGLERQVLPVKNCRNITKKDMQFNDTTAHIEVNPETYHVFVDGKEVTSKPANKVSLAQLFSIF
Urease subunit alpha/Urease subunit beta, sequence (P14916 whole entry, further chain): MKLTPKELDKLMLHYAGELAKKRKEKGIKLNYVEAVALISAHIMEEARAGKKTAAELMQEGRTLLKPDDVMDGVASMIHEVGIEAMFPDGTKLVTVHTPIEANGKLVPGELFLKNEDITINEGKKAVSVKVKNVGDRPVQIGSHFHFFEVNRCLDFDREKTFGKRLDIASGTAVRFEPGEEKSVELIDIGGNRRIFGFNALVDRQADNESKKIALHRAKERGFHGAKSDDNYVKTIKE

Data set [4] can be described thus: Cytotoxicity against human HepG2 cells assessed as cell viability at 250 ug/ml incubated for 72 hrs by CCK8 assay relative to control. The data set is classed as toxicity, cell-based. To be noted: at 250 µg/mL, read-out: Activity.
Data set [5] in a line: Cytotoxicity against human K562 cells assessed as cell viability at 250 ug/ml incubated for 72 hrs by CCK8 assay relative to control. The data set is classed as toxicity, cell-based. To be noted: at 250 µg/mL, read-out: Activity.
The target in data set [6] is T1, Urease subunit alpha/Urease subunit beta (Helicobacter pylori (strain ATCC 700392 / 26695) (Campylobacterpylori)) (UniProt P69996+P14916). The description is as §1. The data set is classed as protein-complex assay.
T1 sequence (P14916 whole entry, looked up): as the sequence (P14916 whole entry, further chain) above
T1 sequence (P69996 whole entry, looked up): as the sequence (P69996 whole entry) above
For data set [7], the target named is T1, Urease subunit alpha/Urease subunit beta (Helicobacter pylori (strain ATCC 700392 / 26695) (Campylobacterpylori)). Nature of the data set: Inhibition of urease using urea as substrate assessed as decrease in ammonia production at 800 ug/ml preincubated for 100 min by indole phenol method. The data set is classed as protein-complex assay. To be noted: dose 800.0 µg/ml.

The target is the same in data set [8]. Nature of the data set: Inhibition of urease using urea as substrate assessed as decrease in ammonia production at 800 ug/ml by indole phenol method. To be noted: dose 800.0 µg/ml, time <= 120.0 min. The data set is classed as protein-complex assay.

The term IC50 denotes the point on the concentration scale where inhibition reaches its midpoint. Regarding `O=c1[nH]nc(C(O)CNc2ccc(OCc3ccccc3)cc2)[nH]1` (configuration not stated), the viability at 72 h, 250 ug/ml is 94.2% in data set [1], 94.7% in data set [2], 89.3% in data set [4] and 89.8% in data set [5]. The IC50 in data set [3] is 21.2 µM.
`O=C1OC(c2n[nH]c(=O)o2)CN1c1ccc(OCc2ccccc2)cc1` (configuration not stated): in data set [3], the IC50 amounted to 73.1 µM.
As to `Cc1ccc(N2CC(Cc3n[nH]c(=O)o3)OC2=O)cc1` (configuration not stated), the inhibition entry in data set [6] is “inactive”.
Take `CC(C)(C)c1ccc(N2CC(Cc3n[nH]c(=O)o3)OC2=O)cc1` (configuration not stated): the IC50 in data set [3] turned out to be 56.8 µM.
`COc1cccc(NCC(O)c2n[nH]c(=O)[nH]2)c1` (configuration not stated): the inhibition entry in data set [6] was “inactive”.
As to `COc1ccc(N2CC(Cc3n[nH]c(=O)o3)OC2=O)cc1` (configuration not stated), in data set [6], the inhibition result was “inactive”.
Regarding `O=C1OC(Cc2n[nH]c(=O)o2)CN1c1ccccc1` (configuration not stated), in data set [3], the IC50 was 65.2 µM.
For the molecule `Cc1cc(C)cc(N2CC(c3n[nH]c(=O)o3)OC2=O)c1` (configuration not stated), the inhibition result in data set [6] was “inactive”.
With `O=C1OC(Cc2n[nH]c(=O)o2)CN1c1cccc(OCc2ccccc2)c1` (configuration not stated), the viability at 72 h, 250 ug/ml stood at 90.2% in data set [1], 94.9% in data set [2], 94.2% in data set [4] and 90.5% in data set [5]. Further, in data set [3], the IC50 was 19.1 µM.
A word on the Ki: it is a dissociation constant, usually derived from enzyme kinetics or from competition with a known ligand. In the case of `O=C1OC(Cc2n[nH]c(=O)o2)CN1c1ccccc1OCc1ccccc1` (configuration not stated), the viability at 72 h, 250 ug/ml in data set [1] came out at 94.6%; in data set [2], 96.5%; in data set [4], 91.5%; in data set [5] it was 93.8%. Further, the inhibition result in data set [7] was “Active”. Further, the IC50 in data set [3] came out at 1.21 µM. For the same molecule, the Ki in data set [3] worked out at 0.24 µM. In data set [8], the inhibition entry is “Dose-Dependent Effect”.
With `O=C1OC(c2n[nH]c(=O)o2)CN1c1ccccc1` (configuration not stated), in data set [6], the inhibition result was “inactive”.
For the molecule `CCc1ccc(N2CC(Cc3n[nH]c(=O)o3)OC2=O)cc1` (configuration not stated), the IC50 in data set [3] was determined as 46.1 µM.
`O=c1[nH]nc(C(O)CNc2cccc(OCc3ccccc3)c2)[nH]1` (configuration not stated): the viability at 72 h, 250 ug/ml in data set [1] worked out at 93.4%; in data set [2], 95.4%; in data set [4], 90.3%; in data set [5], 91.6%. In data set [3], the IC50 turned out to be 6.31 µM. The Ki in data set [3] came out at 2.24 µM.
As to `Cc1ccc(N2CC(c3n[nH]c(=O)o3)OC2=O)cc1` (configuration not stated), the inhibition entry in data set [6] was “inactive”.
For `CCOc1ccc(N2CC(c3n[nH]c(=O)o3)OC2=O)cc1` (configuration not stated), in data set [3], the IC50 amounted to 116 µM.
`Cc1ccc(N2CC(Cc3n[nH]c(=O)o3)OC2=O)cc1C` (configuration not stated): in data set [6], the inhibition result was “inactive”.
Consider `Cc1ccccc1NCC(O)c1n[nH]c(=O)[nH]1` (configuration not stated), for which, in data set [3], the IC50 worked out at 93.5 µM.
On the same count and under the same terms, the result for `CCc1cccc(N2CC(c3n[nH]c(=O)o3)OC2=O)c1` (configuration not stated) reads 151 µM.
As for `O=C1OC(Cc2n[nH]c(=O)o2)CN1c1ccc(OCc2ccccc2)cc1` (configuration not stated), the IC50 in data set [3] came to 45.7 µM.
Take `CCc1cccc(N2CC(Cc3n[nH]c(=O)o3)OC2=O)c1` (configuration not stated): the viability at 72 h, 250 ug/ml in data set [1] came out at 89.3%; in data set [2], 98.7%; in data set [4], 93.1%; in data set [5] it was 95.3%. In addition, the half-maximal inhibitory concentration (IC50) in data set [3] turned out to be 22.1 µM.
Take `CC(C)(C)c1ccc(NCC(O)c2n[nH]c(=O)[nH]2)cc1` (configuration not stated): the IC50 in data set [3] was determined as 40.2 µM.
Turning to `CCOc1ccc(NCC(O)c2n[nH]c(=O)[nH]2)cc1` (configuration not stated), the IC50 in data set [3] was 46.8 µM.
In the case of `CCc1ccccc1N1CC(c2n[nH]c(=O)o2)OC1=O` (configuration not stated), in data set [3], the IC50 was determined as 102 µM.
On to `O=C1OC(c2n[nH]c(=O)o2)CN1c1cccc(OCc2ccccc2)c1` (configuration not stated), for which the viability at 72 h, 250 ug/ml in data set [1] is 87.6%; in data set [2], 98.8%; in data set [4], 92.4%; in data set [5], 90.7%. In data set [3], the IC50 is 20.7 µM.
In the case of `CCc1ccc(NCC(O)c2n[nH]c(=O)[nH]2)cc1` (configuration not stated), the IC50 in data set [3] was 110 µM.
On the same count and under the same terms, the result for `CCc1cccc(NCC(O)c2n[nH]c(=O)[nH]2)c1` (configuration not stated) reads 90.5 µM; that for `Cc1ccc(N2CC(c3n[nH]c(=O)o3)OC2=O)c(C)c1` (configuration not stated), 98.7 µM.
For `COc1ccc(NCC(O)c2n[nH]c(=O)[nH]2)cc1` (configuration not stated), the inhibition entry in data set [6] is “inactive”.
For `Cc1ccccc1N1CC(c2n[nH]c(=O)o2)OC1=O` (configuration not stated), the IC50 in data set [3] stood at 186 µM.
With `Cc1cccc(N2CC(c3n[nH]c(=O)o3)OC2=O)c1` (configuration not stated), in data set [6], the inhibition entry is “inactive”.
On the same count and under the same terms, the result for `COc1ccc(N2CC(c3n[nH]c(=O)o3)OC2=O)cc1` (configuration not stated) reads “inactive”.
Regarding `Cc1ccc(NCC(O)c2n[nH]c(=O)[nH]2)cc1` (configuration not stated), in data set [6], the inhibition result is “inactive”.
`Cc1ccc(NCC(O)c2n[nH]c(=O)[nH]2)c(C)c1` (configuration not stated): the IC50 in data set [3] came out at 87.5 µM.
Take `CC(C)c1ccc(N2CC(Cc3n[nH]c(=O)o3)OC2=O)cc1` (configuration not stated): the viability at 72 h, 250 ug/ml in data set [1] is 90.7%; in data set [2], 96.2%; in data set [4], 89.3%; in data set [5] it was 88.9%. For the same molecule, the IC50 in data set [3] was 24.6 µM.
`Cc1cccc(NCC(O)c2n[nH]c(=O)[nH]2)c1` (configuration not stated): the IC50 in data set [3] came out at 108 µM.
Still for that read-out and setting: under `Cc1cccc(N2CC(Cc3n[nH]c(=O)o3)OC2=O)c1` (configuration not stated) stands 30.6 µM.
For the molecule `CCc1ccccc1NCC(O)c1n[nH]c(=O)[nH]1` (configuration not stated), in data set [3], the IC50 worked out at 62.6 µM.
Same read-out and setting: the result for `CCc1ccc(N2CC(c3n[nH]c(=O)o3)OC2=O)cc1` (configuration not stated) reads 162 µM; that for `O=c1[nH]nc(C(O)CNc2ccccc2)[nH]1` (configuration not stated), 85.2 µM; that for `CC(C)c1ccc(NCC(O)c2n[nH]c(=O)[nH]2)cc1` (configuration not stated), 51.4 µM.
The same measure, in the same setting: under `CCOc1ccccc1NCC(O)c1n[nH]c(=O)[nH]1` (configuration not stated) stands 38.8 µM.
Regarding `Cc1cc(C)cc(N2CC(Cc3n[nH]c(=O)o3)OC2=O)c1` (configuration not stated), the viability at 72 h, 250 ug/ml was found to be 92.5% in data set [1], 98% in data set [2], 90.8% in data set [4] and 92.7% in data set [5]. Besides, in data set [3], the IC50 was 10.1 µM. Moreover, the Ki in data set [3] is 6.75 µM.
Consider `CCOc1ccc(N2CC(Cc3n[nH]c(=O)o3)OC2=O)cc1` (configuration not stated), for which, in data set [3], the IC50 stood at 61.3 µM.
In the case of `Cc1cc(C)cc(NCC(O)c2n[nH]c(=O)[nH]2)c1` (configuration not stated), in data set [3], the IC50 worked out at 30.7 µM.
Still for that read-out and setting: the result for `COc1cccc(N2CC(c3n[nH]c(=O)o3)OC2=O)c1` (configuration not stated) reads 108 µM.
